Assay results as given in US20240091372A1, “ANTI-DOPPEL ANTIBODY DRUG CONJUGATES” (SEOUL NATIONAL UNIVERSITY R&DB FOUNDATION, priority 2022, published 2024).
No end group written: not given here. *: point of attachment. MMAE = monomethyl auristatin E, CC[C@H](C)[C@@H]([C@@H](CC(=O)N1CCC[C@H]1[C@H](OC)[C@@H](C)C(=O)N[C@H](C)[C@@H](O)c1ccccc1)OC)N(C)C(=O)[C@@H](NC(=O)[C@H](C(C)C)N(C)*)C(C)C; p‑aminobenzylcarbamate = NC(=O)OCc1ccc(N*)cc1

B1: 3H9-KGDEVD-MMAE (name=SEQ ID NO:65; structure=SEQ ID NO:66) (antibody, human IgG1, kappa, V domains shown)
VH: EVQLVESGGGLVQPGGSLRLSCAASGFTFSSYAMSWVRQAPGKGLEWVSGISGSGSRTDYADSVKGRFTISRDNSKNTLYLQMNSLRAEDTAVYYCAKVYTYTRGFAFDLWGQGTLVTVSS
VL: DIQMTQSPSSLSASVGDRVTITCRASQSISNYLNWYQQKPGKAPKLLIYAASTLQSGVPSRFSGSGSGTDFTLTISSLQPEDFATYYCQQSYSFPYTFGQGTKVEIKR
modifications: maleimide-KGDEVD-MMAE (SEQ ID NO:77) linker-payload on reduced Cys residues of the partially reduced mAb; positions and chain not stated
B2: 3H9-vc-MMAE (antibody, human IgG1, kappa, V domains shown)
VH: B1 VH
VL: B1 VL
modifications: mc-Val-Cit-PABA-MMAE linker-payload on reduced Cys residues of the partially reduced mAb; positions and chain not stated

Legend:
HCT116 xenograft tumor = experiment: In vivo efficacy in HCT116 xenograft tumor model; parameters: species or system balb-c/nu mice; conditions: for tumor growth suppression (KGDEVD-MMAE ADCs): same tumor model, FIG. 7
Experimental: To assess the anti-tumor efficacy of anti-doppel ADCs, an HCT116 xenograft tumor model was used. HCT116 cells (1×10^^7 cells/mouse) were inoculated into the left flank of balb-c/nu mice. When the average tumor volume reach 70-100 mm^3, ADC was administered intravenously every 4 days for a total of 4 times. Tumor volume was measured every 4 days until the end of the experiments.

doppel = doppel (human, UniProt Q9UKY0 26-152); experiment: cell-based or functional assay
doppel, sequence (Q9UKY0 26-152): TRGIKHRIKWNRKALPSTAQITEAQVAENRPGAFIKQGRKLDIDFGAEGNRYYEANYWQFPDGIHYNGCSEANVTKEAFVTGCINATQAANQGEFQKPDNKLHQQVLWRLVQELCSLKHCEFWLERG

Row | Molecule | tumor growth suppression (KGDEVD-MMAE ADCs) (HCT116 xenograft tumor) | IC50 (nM), cytotoxicity on HCT116 cells, viability after 72 hours (doppel) [nM] | other results
1 | 3D5-KGDEVD-MMAE: ADC prepared as 3H9-KGDEVD-MMAE using anti-doppel mAb 3D5 (maleimide-KGDEVD-{p‑aminobenzylcarbamate-MMAE}; also: conjugated to mAb 3D5 through maleimide) | effectively suppressed tumor growth | – | –
2 | 3H9-DEVD-MMAE: ADC prepared as 3H9-KGDEVD-MMAE except using maleimide-DEVD-MMAE (DEVD-{p‑aminobenzylcarbamate-MMAE}; not fully specified (N-terminus); also: conjugated to mAb 3H9 through maleimide) | – | – | tumor growth suppression, ADCs with different linkers (HCT116 xenograft tumor; HCT116 xenograft, FIG. 6): effectively suppressed tumor growth
3 | 4D1-KGDEVD-MMAE: ADC prepared as 3H9-KGDEVD-MMAE using anti-doppel mAb 4D1 (maleimide-KGDEVD-{p‑aminobenzylcarbamate-MMAE}; also: conjugated to mAb 4D1 through maleimide) | effectively suppressed tumor growth | – | –
4 | B1 | – | 39.3 | –
5 | B2 | – | 28.6 | –
